From BindingDB's records for doi:10.1021/jm00082a007 (J. Uriach & Cía., 1992)

Biological target: Platelet-activating factor receptor (Oryctolagus cuniculus)
Assay: In vitro inhibition of PAF induced aggregation of rabbit platelets.

SMILES | IC50 [µM]
CC[n+]1ccccc1CN(C(C)=O)C(=O)OCC1COC(OCCCCCCOCCCc2ccccc2)C1 (stereo not given) | 0.051
CC[n+]1ccccc1CN(C(C)=O)C(=O)OCC1COC(OCCC(c2ccccc2)c2ccccc2)C1 (stereo not given) | 0.26
CC[n+]1ccccc1CN(C(C)=O)C(=O)OCC1COC(OCCCc2ccccc2)C1 (stereo not given) | 0.19
CCOC1CC(COC(=O)N(Cc2cccc[n+]2CC)C(C)=O)CO1 (stereo not given) | 2.8

Stronger by IC50, values ahead:

IC50 [µM] | SMILES
0.04 | CCCCCCCCCCCCCCCCCCCCOC1CC(COC(=O)N(Cc2cccc[n+]2CC)C(C)=O)CO1 (stereo not given)
0.025 | C=CCCCCCCOCCCCCCOC1CC(COC(=O)N(Cc2cccc[n+]2CC)C(C)=O)CO1 (stereo not given)
0.015 | CC[n+]1ccccc1CN(C(C)=O)C(=O)OCC1COC(OCCCCCCOCCCCCc2ccccc2)C1 (stereo not given)
0.015 | CC[n+]1ccccc1CN(C(C)=O)C(=O)OCC1COC(OCCCCCCOCc2ccc(-c3ccccc3)cc2)C1 (stereo not given)
0.0097 | CCCCCCCCCCCCCCCCOC1CC(COC(=O)N(Cc2cccc[n+]2CC)C(C)=O)CO1 (stereo not given)
0.0021 | CC[n+]1ccccc1CN(C(C)=O)C(=O)OCC1COC(OCCCCCCCCCCCCCCCCOC)C1 (stereo not given)
